This note sets out measurements from ChEMBL document CHEMBL5528002, “Identification of selective 5-LOX and FLAP inhibitors as novel anti-inflammatory agents by ligand-based virtual screening” (Eur J Med Chem, 2024).

Assay [1] addresses T1, Bifunctional epoxide hydrolase 2 (Homo sapiens) (UniProt P34913).
T1 sequence (whole entry): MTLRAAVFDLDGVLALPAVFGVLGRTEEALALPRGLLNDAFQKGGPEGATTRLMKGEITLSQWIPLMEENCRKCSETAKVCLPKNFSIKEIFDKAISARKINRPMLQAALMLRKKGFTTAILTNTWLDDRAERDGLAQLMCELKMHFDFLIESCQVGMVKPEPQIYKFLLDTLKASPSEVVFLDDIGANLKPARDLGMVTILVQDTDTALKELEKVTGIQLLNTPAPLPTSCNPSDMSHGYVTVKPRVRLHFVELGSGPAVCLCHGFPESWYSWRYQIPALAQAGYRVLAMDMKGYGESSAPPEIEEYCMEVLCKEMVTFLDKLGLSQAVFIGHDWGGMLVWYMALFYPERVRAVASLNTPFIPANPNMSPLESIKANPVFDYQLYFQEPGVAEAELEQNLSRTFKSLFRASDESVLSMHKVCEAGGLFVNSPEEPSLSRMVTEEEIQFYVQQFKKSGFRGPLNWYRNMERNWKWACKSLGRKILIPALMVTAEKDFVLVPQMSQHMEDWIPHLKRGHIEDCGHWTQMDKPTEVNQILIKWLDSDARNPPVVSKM
In words: Inhibition of human sEH assessed as enzyme remaining activity at 10 uM relative to control.

The target in assay [2] is T2, Polyunsaturated fatty acid 5-lipoxygenase (Homo sapiens, UniProt P09917).
T2 sequence (P09917 whole entry): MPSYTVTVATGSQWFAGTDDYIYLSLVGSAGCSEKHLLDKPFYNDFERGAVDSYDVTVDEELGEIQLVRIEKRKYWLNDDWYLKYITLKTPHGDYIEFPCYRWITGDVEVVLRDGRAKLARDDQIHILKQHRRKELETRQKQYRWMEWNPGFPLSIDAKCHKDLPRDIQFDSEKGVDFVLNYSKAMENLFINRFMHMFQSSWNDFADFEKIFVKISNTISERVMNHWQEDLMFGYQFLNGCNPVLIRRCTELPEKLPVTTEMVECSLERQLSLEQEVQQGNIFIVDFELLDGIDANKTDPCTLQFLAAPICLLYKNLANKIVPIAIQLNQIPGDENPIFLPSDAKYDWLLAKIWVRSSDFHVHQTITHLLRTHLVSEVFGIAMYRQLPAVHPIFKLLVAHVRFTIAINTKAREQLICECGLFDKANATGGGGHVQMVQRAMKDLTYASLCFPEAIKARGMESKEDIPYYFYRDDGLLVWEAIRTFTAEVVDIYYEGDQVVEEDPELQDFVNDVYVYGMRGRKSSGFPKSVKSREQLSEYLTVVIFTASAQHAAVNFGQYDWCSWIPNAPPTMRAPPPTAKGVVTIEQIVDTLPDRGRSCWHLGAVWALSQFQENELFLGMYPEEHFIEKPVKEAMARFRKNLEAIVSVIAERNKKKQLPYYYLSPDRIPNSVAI
Nature of the assay: Inhibition of 5-LOX in human Neutrophil using arachidonic acid as substrate preincubated with compound for 15 mins followed by substrate and A23187 addition measured after 10 mins by RP-HPLC analysis. It is filed as cell-based.

Assay [3] concerns Macrophage cell line. In words: Effect on lipid mediator formation in human M1-like phenotype MDM cells by measuring LTB4 formation at 10 uM pre-incubated for 15 mins followed by SACM stimulation and measured after 90 mins by UPLC-MS/MS analysis (reference value: 1413 +/- 452 pg/ml). It is filed as functional. To be noted: time 105 min, 1.75 h.
The subject of assay [4] is Macrophage cell line. In words: Effect on lipid mediator formation in human M1-like phenotype MDM cells by measuring 5-HETE formation at 10 uM pre-incubated for 15 mins followed by SACM stimulation and measured after 90 mins by UPLC-MS/MS analysis relative to control. In kind it is functional. To be noted: time 105 min, 1.75 h.
The subject of assay [5] is Macrophage cell line. In words: Effect on lipid mediator formation in human M1-like phenotype MDM cells by measuring 7-HDHA formation at 10 uM pre-incubated for 15 mins followed by SACM stimulation and measured after 90 mins by UPLC-MS/MS analysis relative to control. It is filed as functional. The note with it: time 105 min, 1.75 h.
Assay [6] relates to Macrophage cell line. Nature of the assay: Effect on lipid mediator formation in human M1-like phenotype MDM cells by measuring arachidonic acid formation at 10 uM pre-incubated for 15 mins followed by SACM stimulation and measured after 90 mins by UPLC-MS/MS analysis relative to control. The note with it: time 105 min, 1.75 h. It is filed as functional.
Assay [7] deals with Macrophage cell line. In words: Effect on lipid mediator formation in human M1-like phenotype MDM cells by measuring EPA formation at 10 uM pre-incubated for 15 mins followed by SACM stimulation and measured after 90 mins by UPLC-MS/MS analysis relative to control. It is filed as functional. The note with it: time 105 min, 1.75 h.
Assay [8] relates to Macrophage cell line. In words: Effect on lipid mediator formation in human M2-like phenotype MDM cells by measuring 5-HEPE formation at 10 uM pre-incubated for 15 mins followed by SACM stimulation and measured after 90 mins by UPLC-MS/MS analysis (reference value: 299 +/- 20 pg/ml). In kind it is functional. The note with it: time 105 min, 1.75 h.
Assay [9] has as its system Macrophage cell line. In words: Effect on lipid mediator formation in human M2-like phenotype MDM cells by measuring t-LTB4 formation at 10 uM pre-incubated for 15 mins followed by SACM stimulation and measured after 90 mins by UPLC-MS/MS analysis (reference value: 426 +/- 49 pg/ml). In kind it is functional. The note with it: time 105 min, 1.75 h.
Assay [10] deals with Macrophage cell line. In words: Effect on lipid mediator formation in human M2-like phenotype MDM cells by measuring 15-HEPE formation at 10 uM pre-incubated for 15 mins followed by SACM stimulation and measured after 90 mins by UPLC-MS/MS analysis (reference value: 1385 +/- 343 pg/ml). It is filed as functional. The note with it: time 105 min, 1.75 h.
Assay [11] has as its system Macrophage cell line. In words: Effect on lipid mediator formation in human M2-like phenotype MDM cells by measuring 15-HETE formation at 10 uM pre-incubated for 15 mins followed by SACM stimulation and measured after 90 mins by UPLC-MS/MS analysis (reference value: 18426 +/- 5001 pg/ml). In kind it is functional. To be noted: time 105 min, 1.75 h.
Assay [12] deals with Macrophage cell line. Nature of the assay: Effect on lipid mediator formation in human M2-like phenotype MDM cells by measuring MaR1 formation at 10 uM pre-incubated for 15 mins followed by SACM stimulation and measured after 90 mins by UPLC-MS/MS analysis (reference value: 76 +/- 18 pg/ml). To be noted: time 105 min, 1.75 h. In kind it is functional.
In assay [13] the test system is Macrophage cell line. Nature of the assay: Effect on lipid mediator formation in human M2-like phenotype MDM cells by measuring TXB2 formation at 10 uM pre-incubated for 15 mins followed by SACM stimulation and measured after 90 mins by UPLC-MS/MS analysis relative to control. It is filed as functional. To be noted: time 105 min, 1.75 h.
Assay [14] has as its system Macrophage cell line. Nature of the assay: Effect on lipid mediator formation in human M2-like phenotype MDM cells by measuring 17-HDHA formation at 10 uM pre-incubated for 15 mins followed by SACM stimulation and measured after 90 mins by UPLC-MS/MS analysis relative to control. In kind it is functional. The note with it: time 105 min, 1.75 h.
The subject of assay [15] is Macrophage cell line. Nature of the assay: Effect on lipid mediator formation in human M2-like phenotype MDM cells by measuring 4-HDHA formation at 10 uM pre-incubated for 15 mins followed by SACM stimulation and measured after 90 mins by UPLC-MS/MS analysis relative to control. It is filed as functional. The note with it: time 105 min, 1.75 h.
The subject of assay [16] is Macrophage cell line. Nature of the assay: Effect on lipid mediator formation in human M2-like phenotype MDM cells by measuring 12-HETE formation at 10 uM pre-incubated for 15 mins followed by SACM stimulation and measured after 90 mins by UPLC-MS/MS analysis relative to control. To be noted: time 105 min, 1.75 h. It is filed as functional.

Regarding `Oc1ccc(CCC2CCC(c3ccc(O)cc3)CO2)cc1` (configuration not stated), the Activity came out at 103% in assay [1]; 79 pg/mL in the assay on Macrophage cell line [3]; 13% in the assay on Macrophage cell line [4]; 38% with Macrophage cell line [5]; 108% with Macrophage cell line [6]; 113% in the assay with Macrophage cell line [7]. Further, the Activity in the assay on Macrophage cell line [8] is 102 pg/mL; in the assay with Macrophage cell line [9], 84 pg/mL; in the assay with Macrophage cell line [10], 1937 pg/mL; in the assay with Macrophage cell line [11], 26605 pg/mL; with Macrophage cell line [12], 81 pg/mL; in the assay on Macrophage cell line [13] it was 86%. The Activity in the assay on Macrophage cell line [14] is given as 149%; with Macrophage cell line [15], 100%; with Macrophage cell line [16] it was 122%. Also, the half-inhibitory concentration (IC50) in [2] is 2.1 µM.

Consider `COc1ccc(C2=C/C(=C/c3ccc(O)cc3O)C(=O)O2)cc1`, for which the Activity came to 71.5% in assay [1]; 115 pg/mL in the assay on Macrophage cell line [3]; 7% in the assay on Macrophage cell line [4]; 31% in the assay on Macrophage cell line [5]; 116% in the assay with Macrophage cell line [6]; 136% in the assay on Macrophage cell line [7]. For the same compound, the Activity in the assay with Macrophage cell line [8] was 55 pg/mL; in the assay with Macrophage cell line [9] it was 48 pg/mL; in the assay on Macrophage cell line [10], 2169 pg/mL; in the assay on Macrophage cell line [11] it was 25017 pg/mL; with Macrophage cell line [12], 144 pg/mL; in the assay with Macrophage cell line [13], 76%. In addition, the Activity in the assay with Macrophage cell line [14] was found to be 173%; with Macrophage cell line [15], 85%; with Macrophage cell line [16] it was 114%. In assay [2], the IC50 came to 0.9 µM.

A word on the IC50: it is the point on the concentration scale where inhibition reaches its midpoint.
